In patent US8729091B2, “4-phenoxy-nicotinamide or 4-phenoxy-pyrimidine-5-carboxamide compounds” (Hoffmann-La Roche Inc., priority 2010, dated 2014) one finds EC50 data, which are given here for 14 compounds.

The structures appear in SMILES notation.

This assay deals with T1, human GPBAR1 receptor (Homo sapiens, UniProt Q8TDU6).
T1 construct: expressed in transfected cells
T1 sequence (Q8TDU6 1-330): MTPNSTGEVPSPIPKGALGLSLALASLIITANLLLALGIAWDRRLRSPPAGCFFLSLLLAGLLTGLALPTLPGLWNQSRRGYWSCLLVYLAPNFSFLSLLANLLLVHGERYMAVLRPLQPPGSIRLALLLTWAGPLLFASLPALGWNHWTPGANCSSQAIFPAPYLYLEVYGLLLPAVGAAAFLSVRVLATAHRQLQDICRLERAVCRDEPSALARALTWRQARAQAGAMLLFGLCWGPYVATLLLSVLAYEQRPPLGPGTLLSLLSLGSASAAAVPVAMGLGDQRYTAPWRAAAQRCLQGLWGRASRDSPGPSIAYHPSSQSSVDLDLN
In words: functional cAMP assay in CHO-dhfr(minus) cells expressing human GPBAR1 receptors. Type of assay: cell-based. The note with it: cAMP increase (TR-FRET) in CHO-dhfr(minus) cells expressing human GPBAR1; compounds incubated 30 min at 30° C. The procedure:
The final clone was verified by DNA sequence analysis. The plasmid was transfected into CHO cells deficient in dihydrofolate reductase activity (CHO-dhfr−) using Lipofectamine plus (Invitrogen). Clones were isolated in limited dilution conditions and identified by activities in the cAMP assay using lithocholic acid as agonist.
The growth medium was exchanged with Krebs Ringer Bicarbonate buffer with 1 mM IBMX and incubated at 30° C. for 30 min. Compounds were added to a final assay volume of 100 μl and incubated for 30 min at 30° C. […] The time-resolved energy transfer is measured by a TRF reader (Evotec Technologies GmbH, Hamburg Germany), equipped with a ND:YAG laser as excitation source.
EC50 values were determined using Activity Base analysis (ID Business Solution, Limited). […] Specificity for GPBAR1 was tested in non-transfected CHO cells in the same assay as above.
Turning to `CN(C(=O)c1cnccc1Oc1cc(Cl)ccc1Cl)c1cc(C(F)(F)F)cc(C(F)(F)F)c1` [Example 18, N-(3,5-Bis-trifluoromethyl-phenyl)-4-(2,5-dichloro-phenoxy)-N-methyl-nicotinamide], it took 1400 nM to reach a half-maximal effect (EC50).
Regarding `COc1cc(F)c(F)cc1N(C)C(=O)c1cnccc1Oc1cc(Cl)ccc1Cl` [Example 19, 4-(2,5-Dichloro-phenoxy)-N-(4,5-difluoro-2-methoxy-phenyl)-N-methyl-nicotinamide], the EC50 – broadly, the concentration needed to bring the measured effect to its halfway point – is 100 nM.
To `CN(C)c1ccc(Cl)cc1N(C)C(=O)c1cnccc1Oc1cc(Cl)ccc1Cl` [Example 20, N-(5-Chloro-2-dimethylamino-phenyl)-4-(2,5-dichloro-phenoxy)-N-methyl-nicotinamide] belongs 400 nM.
On to `CNc1cc(F)c(F)cc1N(C)C(=O)c1cnccc1Oc1cc(Cl)ccc1Cl` [Example 21, 4-(2,5-Dichloro-phenoxy)-N-(4,5-difluoro-2-methylamino-phenyl)-N-methyl-nicotinamide], for which the EC50 was determined as 400 nM.
Under `O=C(Nc1cccc2c1NCCC2)c1cnccc1Oc1cc(Cl)ccc1Cl` [Example 22, 4-(2,5-Dichloro-phenoxy)-N-(1,2,3,4-tetrahydro-quinolin-8-yl)-nicotinamide] stands 900 nM; under `CN(C)c1ncccc1N(C)C(=O)c1cnccc1Oc1cc(Cl)ccc1Cl` [Example 23, 4-(2,5-Dichloro-phenoxy)-N-(2-dimethylamino-pyridin-3-yl)-N-methyl-nicotinamide], 200 nM.
In turn, `CN(C(=O)c1cnccc1Oc1cc(Cl)ccc1Cl)c1cccc2c1NCCC2` [Example 24, 4-(2,5-Dichloro-phenoxy)-N-methyl-N-(1,2,3,4-tetrahydro-quinolin-8-yl)-nicotinamide] showed an EC50 of 100 nM.
Compound `CN(C(=O)c1cnccc1Oc1cc(Cl)ccc1Cl)c1cc(F)c(Cl)cc1N(C)C1CC1` [Example 25, N-[4-Chloro-2-(cyclopropyl-methyl-amino)-5-fluoro-phenyl]-4-(2,5-dichloro-phenoxy)-N-methyl-nicotinamide] showed an EC50 of 1700 nM.
`O=C(c1cnccc1Oc1cc(Cl)c(Br)cc1Cl)N1CCN(C2CC2)c2ccccc21` [Example 26, [4-(4-Bromo-2,5-dichloro-phenoxy)-pyridin-3-yl]-(4-cyclopropyl-3,4-dihydro-2H-quinoxalin-1-yl)-methanone] gave an EC50 of 4 nM.
Regarding `COC(=O)c1cc(Cl)c(Oc2ccncc2C(=O)N2CCN(C3CC3)c3ccccc32)cc1Cl` [Example 27, 2,5-Dichloro-4-[3-(4-cyclopropyl-3,4-dihydro-2H-quinoxaline-1-carbonyl)-pyridin-4-yloxy]-benzoic acid methyl ester], the EC50 amounted to 4 nM.
As for `COC(=O)c1cc(Cl)c(Oc2ccncc2C(=O)N2CCN(C3CC3)c3ccccc32)cc1C(=O)OC` [Example 28, 4-Chloro-5-[3-(4-cyclopropyl-3,4-dihydro-2H-quinoxaline-1-carbonyl)-pyridin-4-yloxy]-phthalic acid dimethyl ester], a half-maximal effect (EC50) was put at 4 nM.
On to `COC(=O)CNC(=O)c1cc(Cl)c(Oc2ccncc2C(=O)N2CCN(C3CC3)c3ccccc32)cc1Cl` [Example 29, {2,5-Dichloro-4-[3-(4-cyclopropyl-3,4-dihydro-2H-quinoxaline-1-carbonyl)-pyridin-4-yloxy]-benzoylamino}-acetic acid methyl ester], for which the midpoint of the response, the EC50, lay at 100 nM.
As to `O=C(O)CNC(=O)c1cc(Cl)c(Oc2ccncc2C(=O)N2CCN(C3CC3)c3ccccc32)cc1Cl` [Example 30, {2,5-Dichloro-4-[3-(4-cyclopropyl-3,4-dihydro-2H-quinoxaline-1-carbonyl)-pyridin-4-yloxy]-benzoylamino}-acetic acid], the EC50 worked out at 400 nM.
The compound `COC(=O)CN(C)C(=O)c1cc(Cl)c(Oc2ccncc2C(=O)N2CCN(C3CC3)c3ccccc32)cc1Cl` [Example 31, ({2,5-Dichloro-4-[3-(4-cyclopropyl-3,4-dihydro-2H-quinoxaline-1-carbonyl)-pyridin-4-yloxy]-benzoyl}-methyl-amino)-acetic acid methyl ester] displayed an EC50 of 100 nM.
